Results on one molecule are retold here after PMC4375101 (Chemistry & biology, 2009).

The target in the experiment is yeast Hsc70 (Ssa1p) (Saccharomyces cerevisiae, UniProt P10591). The experiment in a line: single-turnover […]ATP ATPase assay with J-domain co-chaperone. It counts as biochemical.
Sequence of yeast Hsc70 (Ssa1p) (P10591 2-642): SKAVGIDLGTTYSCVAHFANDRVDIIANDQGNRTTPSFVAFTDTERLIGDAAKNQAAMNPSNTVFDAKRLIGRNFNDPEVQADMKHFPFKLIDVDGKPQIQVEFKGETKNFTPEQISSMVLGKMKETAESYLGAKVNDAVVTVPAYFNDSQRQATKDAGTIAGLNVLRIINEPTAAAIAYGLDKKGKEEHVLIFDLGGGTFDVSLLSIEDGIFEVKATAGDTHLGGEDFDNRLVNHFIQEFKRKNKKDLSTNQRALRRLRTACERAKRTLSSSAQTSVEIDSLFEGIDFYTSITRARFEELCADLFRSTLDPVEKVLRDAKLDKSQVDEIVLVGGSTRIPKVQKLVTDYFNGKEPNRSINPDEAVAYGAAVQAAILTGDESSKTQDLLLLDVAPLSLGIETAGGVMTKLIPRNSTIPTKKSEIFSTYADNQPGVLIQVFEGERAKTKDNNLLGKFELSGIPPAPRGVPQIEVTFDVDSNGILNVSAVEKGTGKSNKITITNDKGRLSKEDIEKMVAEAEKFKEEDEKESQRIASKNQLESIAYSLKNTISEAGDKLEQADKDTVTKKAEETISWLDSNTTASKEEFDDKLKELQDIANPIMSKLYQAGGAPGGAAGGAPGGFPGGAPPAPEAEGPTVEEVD
Sequence of yeast Hsc70 (Ssa1p) (P03070 whole entry, further chain): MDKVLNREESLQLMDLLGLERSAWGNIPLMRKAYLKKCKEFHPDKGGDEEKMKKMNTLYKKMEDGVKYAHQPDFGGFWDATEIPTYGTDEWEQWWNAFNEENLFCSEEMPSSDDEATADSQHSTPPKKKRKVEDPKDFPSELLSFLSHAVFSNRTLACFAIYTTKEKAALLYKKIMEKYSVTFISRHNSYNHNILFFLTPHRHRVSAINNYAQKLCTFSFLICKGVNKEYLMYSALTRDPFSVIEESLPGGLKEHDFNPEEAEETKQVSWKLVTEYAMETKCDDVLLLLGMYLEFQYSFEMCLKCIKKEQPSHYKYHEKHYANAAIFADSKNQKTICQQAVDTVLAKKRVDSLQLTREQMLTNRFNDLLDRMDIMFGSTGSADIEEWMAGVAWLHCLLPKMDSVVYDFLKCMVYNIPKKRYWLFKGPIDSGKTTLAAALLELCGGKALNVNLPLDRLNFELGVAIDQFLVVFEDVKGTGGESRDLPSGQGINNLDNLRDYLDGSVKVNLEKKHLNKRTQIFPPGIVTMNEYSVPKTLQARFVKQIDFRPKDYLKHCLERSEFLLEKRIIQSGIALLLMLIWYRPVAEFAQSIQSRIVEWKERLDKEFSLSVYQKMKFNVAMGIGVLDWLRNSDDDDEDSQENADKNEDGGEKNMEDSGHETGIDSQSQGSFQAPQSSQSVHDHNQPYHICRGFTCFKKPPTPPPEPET

As a reminder, the Ki is the dissociation constant of the complex between target and ligand, obtained from inhibition or displacement. A low value points to tighter binding. Turning to `CCCCCCCCCCCCC/C=C/[C@@H](O)[C@H](COC1O[C@H](CO)[C@H](O)[C@H](OS(=O)(=O)O)[C@H]1O)NC(=O)CC12CC3CC(CC(C3)C1)C2` (stereo partly shown) [adaSGC], the Ki is around 10 µM.
